biological target: T1, human RNR (histidine tagged human M1 and human M2 proteins) (Homo sapiens, UniProt P23921); assay: Human RNR inhibition effect (dCDP formation from CDP); type: biochemical; conditions: 10 μM CDP, 37° C. for 30 minutes, read-out: RNR inhibitory activity IC50
T1 construct: made in house; host or cells: Escherichia coli
T1 sequence (P23921 1-792): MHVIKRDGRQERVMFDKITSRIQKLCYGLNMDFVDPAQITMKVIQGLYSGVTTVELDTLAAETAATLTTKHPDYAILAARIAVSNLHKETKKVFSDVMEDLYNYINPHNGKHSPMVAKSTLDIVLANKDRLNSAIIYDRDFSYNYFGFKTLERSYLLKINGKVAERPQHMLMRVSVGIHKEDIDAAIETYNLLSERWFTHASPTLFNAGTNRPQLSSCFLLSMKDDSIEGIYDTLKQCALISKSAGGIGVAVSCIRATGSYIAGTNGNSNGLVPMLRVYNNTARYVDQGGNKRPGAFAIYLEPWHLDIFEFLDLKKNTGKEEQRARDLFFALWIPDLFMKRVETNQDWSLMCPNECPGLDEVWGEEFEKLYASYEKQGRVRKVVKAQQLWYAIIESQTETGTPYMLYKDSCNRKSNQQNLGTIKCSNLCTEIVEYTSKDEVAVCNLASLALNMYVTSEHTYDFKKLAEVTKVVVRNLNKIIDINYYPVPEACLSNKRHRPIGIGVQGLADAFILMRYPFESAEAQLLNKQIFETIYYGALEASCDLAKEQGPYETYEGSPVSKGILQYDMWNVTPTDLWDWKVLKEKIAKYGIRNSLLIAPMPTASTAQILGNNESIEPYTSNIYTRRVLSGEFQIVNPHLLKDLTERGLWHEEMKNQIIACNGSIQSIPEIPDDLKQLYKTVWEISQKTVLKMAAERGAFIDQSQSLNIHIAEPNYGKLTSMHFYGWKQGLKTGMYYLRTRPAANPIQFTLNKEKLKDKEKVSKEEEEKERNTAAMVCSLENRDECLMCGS
Method: The inhibitory activity against the ribonucleotide reduction reaction (RNR inhibitory activity) of the Example compound was determined by measuring the formation of deoxycytidine diphosphate (hereinafter referred to as dCDP) from cytidine diphosphate (hereinafter referred to as CDP) by the following method.
Human M1 subunit (isoform 1, GenBank accession No: NM_001033), to which a histidine tag is fused at the amino terminus, and human M2 subunit (mutant lacking amino terminal 59 amino acids of isoform 2, GenBank accession No: NM_001034), to which a histidine tag is fused, were overexpressed in Escherichia coli and were solubilized after collection, and histidine tagged human M1 and histidine tagged human M2 proteins were purified on a nickel chelate column. A mixture of the histidine tagged human M1 and histidine tagged human M2 proteins was used as RNR in the ribonucleotide reduction reaction. [to]
First, Example compounds were serially diluted with DMSO. Next, human M1 protein and human M2 protein were added to a 0.02% aqueous albumin solution derived from fetal bovine serum, a DMSO solution of the Example compound or the control DMSO solution (final concentration of DMSO was 1%) was added, and the mixture was allowed to stand for 20 minutes. Thereafter, the reaction buffer [50 mM HEPES buffer (pH 7.2) at the final concentration, 4 mM magnesium acetate at the final concentration, 100 mM potassium chloride at the final concentration, 6 mM dithiothreitol at the final concentration, 2 mM adenosine triphosphate at the final concentration, 0.24 mM nicotinamide adenine dinucleotide phosphate at final concentration] and 10 μM CDP at the final concentration were added and incubated at 37° C. for 30 minutes to perform ribonucleotide reduction reaction. Immediately after the reaction, the reaction was stopped by heating at 100° C. for 15 minutes, followed by centrifugation at 10,000 rpm for 10 minutes. After the centrifugation, a portion (5 μL) of the resulting supernatant was analyzed with a high performance liquid chromatography (Shimadzu Corporation, Prominence) using Shim-pack XR-ODS (manufactured by Shimadzu GLC Co., 3.0×100 mm).

Structure (SMILES)	IC50
Cc1c(C(F)(F)F)ccc(F)c1[C@@H](C)[C@H](NS(=O)(=O)c1ccc(Cl)cc1C(N)=O)c1n[nH]c(=O)o1 [Example 27, 5-chloro-2-(N-((1S,2R)-2-(6-fluoro-2-methyl-3-(trifluoromethyl)phenyl)-1-(5-oxo-4,5-dihydro-1,3,4-oxadiazol-2-yl)propyl)sulfamoyl)benzamide]	550 nM
Cc1c(F)ccc(F)c1[C@@H](C)[C@H](NS(=O)(=O)c1ccc(Cl)cc1C(N)=O)c1n[nH]c(=O)o1 [Example 28, 5-chloro-2-(N-((1S,2R)-2-(3,6-difluoro-2-methylphenyl)-1-(5-oxo-4,5-dihydro-1,3,4-oxadiazol-2-yl)propyl)sulfamoyl)benzamide]	500 nM
Cc1ccc(F)c([C@H](C)[C@H](NS(=O)(=O)c2ccc(Cl)cc2C(N)=O)c2n[nH]c(=O)o2)c1C [Example 32, 5-chloro-2-(N-((1S,2S)-2-(6-fluoro-2,3-dimethylphenyl)-1-(5-oxo-4,5-dihydro-1,3,4-oxadiazol-2-yl)propyl)sulfamoyl)benzamide]	790 nM
C[C@H](c1cccc2ccccc12)[C@H](NS(=O)(=O)c1ccc(Cl)cc1Cl)c1n[nH]c(=O)o1 [Example 46, 2,4-dichloro-N-((1S,2R)-2-(naphthalen-1-yl)-1-(5-oxo-4,5-dihydro-1,3,4-oxadiazol-2-yl)propyl)benzenesulfonamide]	840 nM
CC1CCc2cccc(C(C)[C@H](NS(=O)(=O)c3ccc(Br)cn3)c3n[nH]c(=O)o3)c21 (stereo partly drawn) [Example 48, 5-bromo-N-((1S)-2-(3-methyl-2,3-dihydro-1H-inden-4-yl)-1-(5-oxo-4,5-dihydro-1,3,4-oxadiazol-2-yl)propyl)pyridine-2-sulfonamide]	600 nM
C[C@H](c1cccc2c1Cc1ccccc1-2)[C@H](NS(=O)(=O)c1ccc(Br)cn1)c1n[nH]c(=O)o1 [Example 49, N-((1S,2R)-2-(9H-fluoren-1-yl)-1-(5-oxo-4,5-dihydro-1,3,4-oxadiazol-2-yl)propyl)-5-bromopyridine-2-sulfonamide]	800 nM
C[C@H](c1cccc2c1-c1ccccc1C2)[C@H](NS(=O)(=O)c1ccc(Br)cn1)c1n[nH]c(=O)o1 [Example 50, N-((1S,2R)-2-(9H-fluoren-4-yl)-1-(5-oxo-4,5-dihydro-1,3,4-oxadiazol-2-yl)propyl)-5-bromopyridine-2-sulfonamide]	850 nM
C[C@H](c1cccc2c1CCCC2)[C@H](NS(=O)(=O)c1ccc(Cl)cn1)c1n[nH]c(=O)o1 [Example 52]	770 nM
C[C@H](c1cccc2c1CCC2)[C@H](NS(=O)(=O)c1ccc(Br)cc1F)c1n[nH]c(=O)o1 [Example 60, 4-bromo-N-((1S,2R)-2-(2,3-dihydro-1H-inden-4-yl)-1-(5-oxo-4,5-dihydro-1,3,4-oxadiazol-2-yl)propyl)-2-fluorobenzenesulfonamide]	990 nM
COc1cc(Cl)ccc1S(=O)(=O)N[C@H](c1n[nH]c(=O)o1)[C@H](C)c1cccc2c1CC(C)C2 (stereo partly drawn) [Example 67, 4-chloro-2-methoxy-N-((1S,2R)-2-(2-methyl-2,3-dihydro-1H-inden-4-yl)-1-(5-oxo-4,5-dihydro-1,3,4-oxadiazol-2-yl)propyl)benzenesulfonamide]	700 nM
COc1cc(Cl)ccc1S(=O)(=O)N[C@H](c1n[nH]c(=O)o1)[C@H](C)c1cccc2cccc(C)c12 [Example 71, 4-chloro-2-methoxy-N-((1S,2R)-2-(8-methylnaphthalen-1-yl)-1-(5-oxo-4,5-dihydro-1,3,4-oxadiazol-2-yl)propyl)benzenesulfonamide]	240 nM

Now those with a lower IC50, led by results:

IC50	Structure (SMILES)
150 nM	Cc1c(Br)ccc(F)c1[C@@H](C)[C@H](NS(=O)(=O)c1ccc(Cl)cc1C(N)=O)c1n[nH]c(=O)o1 [Example 30, 2-(N-((1S,2R)-2-(3-bromo-6-fluoro-2-methylphenyl)-1-(5-oxo-4,5-dihydro-1,3,4-oxadiazol-2-yl)propyl)sulfamoyl)-5-chlorobenzamide]
100 nM	Cc1ccc(F)c([C@@H](C)[C@H](NS(=O)(=O)c2ccc(Cl)c(C(N)=O)n2)c2n[nH]c(=O)o2)c1C [Example 31, 3-chloro-6-(N-((1S,2R)-2-(6-fluoro-2,3-dimethylphenyl)-1-(5-oxo-4,5-dihydro-1,3,4-oxadiazol-2-yl)propyl)sulfamoyl)picolinamide]
130 nM	Cc1c(Br)ccc(F)c1[C@@H](C)[C@H](NS(=O)(=O)c1ccc(Br)cc1C(N)=O)c1n[nH]c(=O)o1 [Example 35, 5-bromo-2-(N-((1S,2R)-2-(3-bromo-6-fluoro-2-methylphenyl)-1-(5-oxo-4,5-dihydro-1,3,4-oxadiazol-2-yl)propyl)sulfamoyl)benzamide]
110 nM	Cc1ccc(F)c([C@@H](C)[C@H](NS(=O)(=O)c2cc(C(=O)N3CCOCC3)ccc2C(N)=O)c2n[nH]c(=O)o2)c1C [Example 36, 2-(N-((1S,2R)-2-(6-fluoro-2,3-dimethylphenyl)-1-(5-oxo-4,5-dihydro-1,3,4-oxadiazol-2-yl)propyl)sulfamoyl)-4-(morpholine-4-carbonyl)benzamide]
140 nM	Cc1ccc(F)c([C@@H](C)[C@H](NS(=O)(=O)c2cc(C(=O)N(C)C)ccc2C(N)=O)c2n[nH]c(=O)o2)c1C [Example 37, 3-(N-((1S,2R)-2-(6-fluoro-2,3-dimethylphenyl)-1-(5-oxo-4,5-dihydro-1,3,4-oxadiazol-2-yl)propyl)sulfamoyl)-N1,N1-dimethylterephthalamide]
190 nM	Cc1ccc(F)c([C@@H](C)[C@H](NS(=O)(=O)c2cc(C(=O)O)c(Cl)cc2C(N)=O)c2n[nH]c(=O)o2)c1C [Example 38, 4-carbamoyl-2-chloro-5-(N-((1S,2R)-2-(6-fluoro-2,3-dimethylphenyl)-1-(5-oxo-4,5-dihydro-1,3,4-oxadiazol-2-yl)propyl)sulfamoyl)benzoic acid]
40 nM	Cc1ccc(F)c([C@@H](C)[C@H](NS(=O)(=O)c2cc(C(=O)N(C)C)c(Cl)cc2C(N)=O)c2n[nH]c(=O)o2)c1C [Example 39, 2-chloro-5-(N-((1S,2R)-2-(6-fluoro-2,3-dimethylphenyl)-1-(5-oxo-4,5-dihydro-1,3,4-oxadiazol-2-yl)propyl)sulfamoyl)-N1,N1-dimethyl terephthalamide]
130 nM	Cc1ccc(F)c([C@@H](C)[C@H](NS(=O)(=O)c2cnc(Cl)cc2C(N)=O)c2n[nH]c(=O)o2)c1C [Example 40, 2-chloro-5-(N-((1S,2R)-2-(6-fluoro-2,3-dimethylphenyl)-1-(5-oxo-4,5-dihydro-1,3,4-oxadiazol-2-yl)propyl)sulfamoyl)isonicotinamide]
100 nM	Cc1ccc(F)c([C@@H](C)[C@H](NS(=O)(=O)c2ccc(C(F)(F)F)cc2C(N)=O)c2n[nH]c(=O)o2)c1C [Example 41, 2-(N-((1S,2R)-2-(6-fluoro-2,3-dimethylphenyl)-1-(5-oxo-4,5-dihydro-1,3,4-oxadiazol-2-yl)propyl)sulfamoyl)-5-(trifluoromethyl)benzamide]
200 nM	Cc1c(Br)ccc(F)c1[C@@H](C)[C@H](NS(=O)(=O)c1ccc(C(F)(F)F)cc1C(N)=O)c1n[nH]c(=O)o1 [Example 42, 2-(N-((1S,2R)-2-(3-bromo-6-fluoro-2-methylphenyl)-1-(5-oxo-4,5-dihydro-1,3,4-oxadiazol-2-yl)propyl)sulfamoyl)-5-(trifluoromethyl)benzamide]
80 nM	[2H]C([2H])([2H])[C@H](c1c(F)ccc(C)c1C)[C@H](NS(=O)(=O)c1ccc(Cl)cc1C(N)=O)c1n[nH]c(=O)o1 [Example 43, 5-chloro-2-[[(1S,2R)-3,3,3-trideuterio-2-(6-fluoro-2,3-dimethylphenyl)-1-(2-oxo-3H-1,3,4-oxadiazol-5-yl)propyl]sulfamoyl]benzamide]

From US20200405697A1, “Antitumor Agent” (Taiho Pharmaceutical Co., Ltd, priority 2017, published 2020)
